From patent US9340555B2, “Compounds as tyrosine kinase modulators” (Allergan, Inc., priority 2009, dated 2016) come the findings set out here.

Molecules are shown by their SMILES.

In one data set the target is VEGFR2 (Homo sapiens (Human), UniProt P35968). Briefly: VEGF Stimulated Ca++ Signal In Vitro (Cellular VEGFR2, FLIPR). The class given is cell-based. The note with it: HUVEC, VEGF stimulation (5 ng/mL), intracellular calcium.
Data set [1] addresses human VEGF receptor (VEGFR-2) (Homo sapiens (Human), UniProt P35968). The data set can be described thus: VEGFR2 Kinase Assay (Enzymic VEGFR2). It counts as biochemical. To be noted: His-VEGFR-2 cytoplasmic domain, 3.6 µM ATP. As for the experimental part:
VEGFR2 Kinase Assay The cytoplasmic domain of the human VEGF receptor (VEGFR-2) was expressed as a Histidine-tagged fusion protein following infection of insect cells using an His engineered baculovirus. […] Kinase assays were performed in 96 well microtiter plates that were coated overnight with 30 µg of poly-Glu-[…]:1) in 10 mM Phosphate Buffered Saline (PBS), pH 7.2-7.4. The plates were incubated with 1% BSA and then washed four times with PBS prior to starting the reaction. […] Reactions were initiated by the addition 0.5 ng of purified protein. Following a ten minute incubation at 25° C., the reactions were washed four times with PBS containing 0.05% Tween-20. 100 µl of a monoclonal anti-phosphotyrosine antibody-peroxidase conjugate was diluted 1:10000 in PBS-Tween-20 and added to the wells for 30 minutes. Following four washes with PBS-Tween-20, 100 µl of 0-phenylenediamine Dihydrochloride in Phosphate-citrate buffer, containing urea hydrogen peroxide, was added to the wells for 7 minutes as a colorimetric substrate for the peroxidase. […] IC50 values for compound inhibition were calculated directly from graphs of optical density (arbitrary units) versus compound concentration following subtraction of blank values.

The target of a further data set is VEGFR1 (Homo sapiens (Human), UniProt P17948). Briefly: Enzymic VEGFR1. It counts as biochemical.
VEGFR1, sequence (P17948 27-1338, species assumed): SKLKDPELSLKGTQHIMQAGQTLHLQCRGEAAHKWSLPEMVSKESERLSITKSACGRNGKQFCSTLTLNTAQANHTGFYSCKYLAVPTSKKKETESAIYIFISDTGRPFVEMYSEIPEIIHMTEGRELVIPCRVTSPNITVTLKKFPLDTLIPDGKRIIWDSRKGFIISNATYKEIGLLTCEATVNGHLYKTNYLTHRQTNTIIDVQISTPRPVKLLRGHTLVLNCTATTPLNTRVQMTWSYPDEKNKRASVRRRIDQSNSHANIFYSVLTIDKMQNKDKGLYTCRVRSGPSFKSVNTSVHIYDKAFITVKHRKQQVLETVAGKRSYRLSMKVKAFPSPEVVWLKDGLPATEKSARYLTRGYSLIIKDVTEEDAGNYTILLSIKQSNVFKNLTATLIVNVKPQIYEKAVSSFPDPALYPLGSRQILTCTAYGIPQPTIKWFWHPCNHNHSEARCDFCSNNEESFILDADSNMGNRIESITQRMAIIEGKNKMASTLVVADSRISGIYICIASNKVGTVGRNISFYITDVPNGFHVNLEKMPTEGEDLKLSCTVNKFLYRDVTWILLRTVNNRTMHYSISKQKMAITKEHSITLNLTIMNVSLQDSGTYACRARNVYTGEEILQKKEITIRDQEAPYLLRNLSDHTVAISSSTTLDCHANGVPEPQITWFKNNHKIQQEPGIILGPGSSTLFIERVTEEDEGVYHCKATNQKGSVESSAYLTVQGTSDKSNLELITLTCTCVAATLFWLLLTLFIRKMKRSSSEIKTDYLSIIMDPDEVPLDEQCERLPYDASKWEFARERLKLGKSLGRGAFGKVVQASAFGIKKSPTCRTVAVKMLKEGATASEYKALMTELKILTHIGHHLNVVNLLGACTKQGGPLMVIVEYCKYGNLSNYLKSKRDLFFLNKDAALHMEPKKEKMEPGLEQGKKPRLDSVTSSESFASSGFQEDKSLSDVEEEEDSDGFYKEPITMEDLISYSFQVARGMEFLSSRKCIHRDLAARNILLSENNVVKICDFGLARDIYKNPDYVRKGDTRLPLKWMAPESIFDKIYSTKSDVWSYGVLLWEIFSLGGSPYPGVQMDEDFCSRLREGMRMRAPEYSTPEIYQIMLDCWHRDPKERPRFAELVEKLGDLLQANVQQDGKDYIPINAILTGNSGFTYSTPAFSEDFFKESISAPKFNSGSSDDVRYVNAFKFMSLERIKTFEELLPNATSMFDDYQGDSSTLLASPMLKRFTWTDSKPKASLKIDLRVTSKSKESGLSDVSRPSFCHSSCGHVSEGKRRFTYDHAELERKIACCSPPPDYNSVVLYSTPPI
For data set [2], the system named is Rabbit Eye VEGF Permeability. The data set can be described thus: Rabbit Eye VEGF Permeability Model. It counts as in vivo. An excerpt: Rabbit Eye VEGF Permeability Model
Assay used was detailed by Jeffrey Edelman, etc in Exp. Eye. Res. 80 (2005), Pg 249-258.

The target in a further data set is PDGFRβ (Homo sapiens (Human), UniProt P09619). Briefly: Enzymic PDGFRβ. The class given is biochemical.
PDGFRβ, sequence (P09619 33-1106, species assumed): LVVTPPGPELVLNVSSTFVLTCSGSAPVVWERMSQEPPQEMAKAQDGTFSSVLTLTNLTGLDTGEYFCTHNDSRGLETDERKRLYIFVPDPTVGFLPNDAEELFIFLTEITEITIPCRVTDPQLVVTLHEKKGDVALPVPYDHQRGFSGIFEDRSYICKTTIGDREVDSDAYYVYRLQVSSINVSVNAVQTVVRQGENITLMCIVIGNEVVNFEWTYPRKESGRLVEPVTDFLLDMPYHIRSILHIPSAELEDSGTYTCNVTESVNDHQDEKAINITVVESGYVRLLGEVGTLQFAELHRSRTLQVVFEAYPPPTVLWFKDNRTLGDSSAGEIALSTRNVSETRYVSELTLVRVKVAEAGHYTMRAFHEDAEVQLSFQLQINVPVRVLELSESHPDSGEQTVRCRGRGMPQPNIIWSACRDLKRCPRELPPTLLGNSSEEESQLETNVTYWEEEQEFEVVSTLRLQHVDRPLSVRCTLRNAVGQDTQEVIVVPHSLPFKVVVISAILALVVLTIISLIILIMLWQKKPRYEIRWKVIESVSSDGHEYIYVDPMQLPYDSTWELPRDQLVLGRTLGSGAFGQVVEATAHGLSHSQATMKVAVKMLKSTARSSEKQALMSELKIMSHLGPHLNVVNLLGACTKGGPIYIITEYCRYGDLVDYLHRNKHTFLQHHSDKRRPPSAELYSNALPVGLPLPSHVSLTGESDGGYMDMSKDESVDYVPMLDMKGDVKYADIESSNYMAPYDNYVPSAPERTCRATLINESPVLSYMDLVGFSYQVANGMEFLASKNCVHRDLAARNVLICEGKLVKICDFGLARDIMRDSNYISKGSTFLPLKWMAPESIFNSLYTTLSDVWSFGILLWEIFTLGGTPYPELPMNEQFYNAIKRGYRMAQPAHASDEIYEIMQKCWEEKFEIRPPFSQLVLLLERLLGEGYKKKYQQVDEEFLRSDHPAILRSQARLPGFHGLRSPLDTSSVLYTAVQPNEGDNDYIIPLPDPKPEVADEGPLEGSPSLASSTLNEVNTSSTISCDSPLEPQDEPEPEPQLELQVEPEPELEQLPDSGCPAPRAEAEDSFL

VEGFR2, sequence (P35968 20-1356): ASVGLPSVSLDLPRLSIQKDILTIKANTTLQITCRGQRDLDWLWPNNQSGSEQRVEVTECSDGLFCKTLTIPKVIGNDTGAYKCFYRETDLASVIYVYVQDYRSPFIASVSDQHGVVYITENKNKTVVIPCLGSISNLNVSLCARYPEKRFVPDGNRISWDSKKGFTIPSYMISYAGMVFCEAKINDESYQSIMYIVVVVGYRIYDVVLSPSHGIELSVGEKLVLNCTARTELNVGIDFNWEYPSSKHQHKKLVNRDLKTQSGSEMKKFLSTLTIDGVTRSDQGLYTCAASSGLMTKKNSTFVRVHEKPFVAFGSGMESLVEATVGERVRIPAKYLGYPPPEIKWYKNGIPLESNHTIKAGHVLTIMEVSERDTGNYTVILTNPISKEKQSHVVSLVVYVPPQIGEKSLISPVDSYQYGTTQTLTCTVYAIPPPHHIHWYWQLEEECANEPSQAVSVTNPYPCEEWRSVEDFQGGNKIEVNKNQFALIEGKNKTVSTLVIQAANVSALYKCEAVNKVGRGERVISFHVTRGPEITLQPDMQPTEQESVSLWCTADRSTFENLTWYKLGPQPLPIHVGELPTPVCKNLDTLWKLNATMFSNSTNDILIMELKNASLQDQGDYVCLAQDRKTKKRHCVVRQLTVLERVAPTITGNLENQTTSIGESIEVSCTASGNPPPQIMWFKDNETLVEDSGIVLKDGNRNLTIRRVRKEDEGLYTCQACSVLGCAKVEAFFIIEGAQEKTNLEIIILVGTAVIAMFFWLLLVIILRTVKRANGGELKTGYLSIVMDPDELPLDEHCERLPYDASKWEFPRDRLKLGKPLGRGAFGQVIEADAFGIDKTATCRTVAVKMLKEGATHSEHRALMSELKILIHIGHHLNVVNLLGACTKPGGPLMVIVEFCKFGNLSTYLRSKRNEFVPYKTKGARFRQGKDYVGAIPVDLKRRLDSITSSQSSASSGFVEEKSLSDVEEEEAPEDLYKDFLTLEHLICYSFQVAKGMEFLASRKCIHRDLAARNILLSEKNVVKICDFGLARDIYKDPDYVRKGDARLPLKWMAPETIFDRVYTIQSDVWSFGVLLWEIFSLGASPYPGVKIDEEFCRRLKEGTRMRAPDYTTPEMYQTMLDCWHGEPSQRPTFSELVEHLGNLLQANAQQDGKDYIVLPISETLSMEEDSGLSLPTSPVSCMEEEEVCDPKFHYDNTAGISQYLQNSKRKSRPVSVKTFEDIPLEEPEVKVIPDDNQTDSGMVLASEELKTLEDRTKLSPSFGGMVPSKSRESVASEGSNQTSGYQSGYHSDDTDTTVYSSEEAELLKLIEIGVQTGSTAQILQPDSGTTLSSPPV
human VEGF receptor (VEGFR-2), sequence (P35968 786-1356): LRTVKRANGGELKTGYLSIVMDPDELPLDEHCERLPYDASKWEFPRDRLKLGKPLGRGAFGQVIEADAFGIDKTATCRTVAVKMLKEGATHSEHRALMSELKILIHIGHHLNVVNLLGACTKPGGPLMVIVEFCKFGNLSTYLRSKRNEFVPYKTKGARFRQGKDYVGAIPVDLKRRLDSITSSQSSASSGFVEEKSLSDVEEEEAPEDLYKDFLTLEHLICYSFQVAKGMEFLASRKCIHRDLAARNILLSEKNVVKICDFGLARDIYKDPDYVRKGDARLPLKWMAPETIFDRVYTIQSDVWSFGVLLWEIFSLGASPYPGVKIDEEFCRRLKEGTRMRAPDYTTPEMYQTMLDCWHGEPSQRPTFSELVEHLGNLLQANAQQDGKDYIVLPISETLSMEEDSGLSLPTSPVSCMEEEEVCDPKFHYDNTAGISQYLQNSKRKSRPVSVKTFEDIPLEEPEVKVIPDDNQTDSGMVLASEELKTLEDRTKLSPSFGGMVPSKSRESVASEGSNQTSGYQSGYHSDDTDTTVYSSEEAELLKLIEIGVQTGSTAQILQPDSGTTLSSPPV

Usually IC50 stands for the concentration needed to halve the response being measured. As to `Cc1ccc(F)c(NC(=O)Nc2ccc(Oc3ccnc4cc(C(=O)O)sc34)cc2)c1` [Compound F2, 7-[4-({[(2-Fluoro-5-methylphenyl)amino]carbonyl}amino)phenoxy]thieno[3,2-b]pyridine-2-carboxylic acid], the IC50 on VEGFR2 worked out at 29 nM; in data set [1], 20 nM; against VEGFR1 it was 16 nM. Besides, in data set [2], the “In Vivo Rabbit Eye VEGF Permeability” value is listed as “efficacious”.
On to `Cc1ccc(F)c(NC(=O)Nc2ccc(Oc3ccnc4cc(C(=O)NCCCc5nn[nH]n5)sc34)cc2)c1` [Example 12, 7-[4-({[(2-fluoro-5-methylphenyl)amino]carbonyl}amino)phenoxy]-N-[3-(2H-tetrazol-5-yl)propyl]thieno[3,2-b]pyridine-2-carboxamide], for which the IC50 on VEGFR2 is 126 nM; in data set [1], 3 nM; against VEGFR1 it was 4 nM; on PDGFRβ, 20 nM.
With `Cc1ccc(F)c(NC(=O)Nc2ccc(Oc3ccnc4cc(C(=O)NCCc5nn[nH]n5)sc34)cc2)c1` [Example 13, 7-[4-({[(2-fluoro-5-methylphenyl)amino]carbonyl}amino)phenoxy]-N-[2-(2H-tetrazol-5-yl)ethyl]thieno[3,2-b]pyridine-2-carboxamide], the half-maximal inhibitory concentration (IC50) was 97 nM on VEGFR2, 6 nM in data set [1], 10 nM at VEGFR1 and 19 nM at PDGFRβ.
In the same order, the values of `CCOC(=O)CN1CCN(CCCNC(=O)c2cc3nccc(Oc4ccc(NC(=O)Nc5cc(C)ccc5F)cc4)c3s2)CC1` [Example 14, ethyl (4-{3-[({7-[4-({[(2-fluoro-5-methylphenyl)amino]carbonyl}amino)phenoxy]thieno[3,2-b]pyridin-2-yl}carbonyl)amino]propyl}piperazin-1-yl)acetate] are 34 nM, 4 nM, 5 nM and 13 nM.
Turning to `Cc1ccc(F)c(NC(=O)Nc2ccc(Oc3ccnc4cc(C(=O)NCCCN5CCCC(CO)C5)sc34)cc2)c1` (stereo not drawn) [Example 15, 7-[4-({[(2-fluoro-5-methylphenyl)amino]carbonyl}amino)phenoxy]-N-{3-[3-(hydroxymethyl)piperidin-1-yl]propyl}thieno[3,2-b]pyridine-2-carboxamide], the IC50 at VEGFR2 stood at 39 nM; in data set [1] it was 3 nM; against VEGFR1, 3 nM; against PDGFRβ, 10 nM.
As for `COC(=O)CN(CCCNC(=O)c1cc2nccc(Oc3ccc(NC(=O)Nc4cc(C)ccc4F)cc3)c2s1)CC(=O)OC` [Example 19, dimethyl 2,2′-({3-[({7-[4-({[(2-fluoro-5-methylphenyl)amino]carbonyl}amino)phenoxy]thieno[3,2-b]pyridin-2-yl}carbonyl)amino]propyl}imino)diacetate], the half-inhibitory concentration (IC50) is 0.3 nM on VEGFR2, 4 nM in data set [1], 9 nM against VEGFR1 and 14 nM at PDGFRβ.
In the same order, the values of `CCOC(=O)N1CCN(CCNC(=O)c2cc3nccc(Oc4ccc(NC(=O)Nc5cc(C)ccc5F)c(F)c4)c3s2)CC1` [Example 23, ethyl 4-{2-[({7-[3-fluoro-4-({[(2-fluoro-5-methylphenyl)amino]carbonyl}amino)phenoxy]thieno[3,2-b]pyridin-2-yl}carbonyl)amino]ethyl}piperazine-1-carboxylate] are 9 nM, 7 nM, 13 nM and 14 nM.
For `Cc1ccc(F)c(NC(=O)Nc2ccc(Oc3ccnc4cc(C(=O)NCCN)sc34)cc2F)c1` [Example 32, N-(2-aminoethyl)-7-[3-fluoro-4-({[(2-fluoro-5-methylphenyl)amino]carbonyl}amino)phenoxy]thieno[3,2-b]pyridine-2-carboxamide], the concentration for half-maximal inhibition (IC50) was 4 nM in data set [1], 11 nM against VEGFR1 and 15 nM against PDGFRβ.
In the same order, the values of `Cc1ccc(F)c(NC(=O)Nc2ccc(Oc3ccnc4cc(C(=O)NCCNC(=O)OC(C)(C)C)sc34)cc2F)c1` [Example 33] are 24 nM, 60 nM and 69 nM.
In the same order, the values of `Cc1ccc(F)c(NC(=O)Nc2ccc(Oc3ccnc4cc(C(=O)NCCCN5CCN(C)CC5)sc34)cc2F)c1` [Example 34, 7-[3-fluoro-4-({[(2-fluoro-5-methylphenyl)amino]carbonyl}amino)phenoxy]-N-[3-(4-methylpiperazin-1-yl)propyl]thieno[3,2-b]pyridine-2-carboxamide] are 3 nM, 6 nM and 11 nM.
As to `Cc1ccc(F)c(NC(=O)Nc2ccc(Oc3ccnc4cc(C(=O)NCCCN5CCOC(CO)C5)sc34)cc2F)c1` (stereo not drawn) [Example 37, 7-[3-fluoro-4-({[(2-fluoro-5-methylphenyl)amino]carbonyl}amino)phenoxy]-N-{3-[2-(hydroxymethyl)morpholin-4-yl]propyl}thieno[3,2-b]pyridine-2-carboxamide], the IC50 came out at 1 nM on VEGFR2, 7 nM in data set [1] and 9 nM against VEGFR1.
In the case of `Cc1ccc(F)c(NC(=O)Nc2ccc(Oc3ccnc4cc(C(=O)NCCCN5CCC(O)CC5)sc34)cc2F)c1` [Example 38, 7-[3-fluoro-4-({[(2-fluoro-5-methylphenyl)amino]carbonyl}amino)phenoxy]-N-[3-(4-hydroxypiperidin-1-yl)propyl]thieno[3,2-b]pyridine-2-carboxamide], the IC50 worked out at 14 nM at VEGFR2, 7 nM in data set [1] and 8 nM against VEGFR1.
Take `COC(=O)[C@@H]1C[C@@H](O)CN1CCCNC(=O)c1cc2nccc(Oc3ccc(NC(=O)Nc4cc(C)ccc4F)c(F)c3)c2s1` [Example 39, methyl (2S,4R)-1-{3-[({7-[3-fluoro-4-({[(2-fluoro-5-methylphenyl)amino]carbonyl}amino)phenoxy]thieno[3,2-b]pyridin-2-yl}carbonyl)amino]propyl}-4-hydroxypyrrolidine-2-carboxylate]: the figures for the IC50 (at VEGFR2; in data set [1]; against VEGFR1) were 2 nM, 5 nM and 8 nM, respectively.
Consider `CCNC(=O)[C@H](CCC(=O)O)NC(=O)c1cc2nccc(Oc3ccc(NC(=O)Nc4cc(C)ccc4F)c(F)c3)c2s1` [Example 46, (4S)-5-(ethylamino)-4-[({7-[3-fluoro-4-({[(2-fluoro-5-methylphenyl)amino]carbonyl}amino)phenoxy]thieno[3,2-b]pyridin-2-yl}carbonyl)amino]-5-oxopentanoic acid], for which the IC50 on VEGFR2 was determined as 328 nM; in data set [1] it was 19 nM. For the same compound, in data set [2], the “In Vivo Rabbit Eye VEGF Permeability” value is “Efficacious”.
For `Cc1ccc(F)c(NC(=O)Nc2ccc(Oc3ccnc4cc(C(=O)NCCCN5CCC(C(=O)O)C5)sc34)cc2F)c1` (stereo not drawn) [Example 50, 1-{3-[({7-[3-fluoro-4-({[(2-fluoro-5-methylphenyl)amino]carbonyl}amino)phenoxy]thieno[3,2-b]pyridin-2-yl}carbonyl)amino]propyl}pyrrolidine-3-carboxylic acid], the figures for the half-maximal inhibitory concentration (IC50) (at VEGFR2; in data set [1]; against VEGFR1) were 80 nM, 16 nM and 18 nM, respectively.
In the case of `Cc1ccc(F)c(NC(=O)Nc2ccc(Oc3ccnc4cc(C(=O)NCCCN5CCOCC5)sc34)cc2F)c1` [Example 55, 7-[3-fluoro-4-({[(2-fluoro-5-methylphenyl)amino]carbonyl}amino)phenoxy]-N-(3-morpholin-4-ylpropyl)thieno[3,2-b]pyridine-2-carboxamide], the results for the IC50 (at VEGFR2; in data set [1]; against VEGFR1) were 7 nM, 11 nM and 7 nM, respectively. The “In Vivo Rabbit Eye VEGF Permeability” value in data set [2] is given as “Efficacious”.
Turning to `CCOC(=O)CCCNC(=O)c1cc2nccc(Oc3ccc(NC(=O)Nc4cc(C)ccc4F)c(F)c3)c2s1` [Example 57, ethyl 4-[({7-[3-fluoro-4-({[(2-fluoro-5-methylphenyl)amino]carbonyl}amino)phenoxy]thieno[3,2-b]pyridin-2-yl}carbonyl)amino]butanoate], the IC50 on VEGFR2 was 1 nM; in data set [1], 14 nM; against VEGFR1, 15 nM.
Consider `Cc1ccc(F)c(NC(=O)Nc2ccc(Oc3ccnc4cc(C(=O)NCCCC(=O)O)sc34)cc2)c1` [Example 65, 4-[({7-[4-({[(2-fluoro-5-methylphenyl)amino]carbonyl}amino)phenoxy]thieno[3,2-b]pyridin-2-yl}carbonyl)amino]butanoic acid], for which the IC50 came out at 2 nM at VEGFR2, 12 nM in data set [1] and 7 nM against VEGFR1.
With `CCN(CC)CCNC(=O)c1cc2nccc(Oc3ccc(NC(=O)Nc4cc(C)ccc4F)cc3)c2s1` [Example 69, N-[2-(diethylamino)ethyl]-7-[4-({[(2-fluoro-5-methylphenyl)amino]carbonyl}amino)phenoxy]thieno[3,2-b]pyridine-2-carboxamide], the half-inhibitory concentration (IC50) at VEGFR2 amounted to 11 nM; in data set [1], 4 nM; on VEGFR1 it was 5 nM; against PDGFRβ, 13 nM.
